# Laboratory results from ChEMBL document CHEMBL3352736, “Synthesis and preliminary biological evaluation of new antiproliferative aromatic analogues of 1α,25-dihydroxyvitamin D3” (Eur J Med Chem, 2014).
# Test system: HL-60
# Assay: […] of human HL60 cells incubated for 144 hrs by Wst-1 dye based assay
# Type: functional
# Conditions: HL-60, 144 h
row,Structure (SMILES),IC50
1,CC(C)CCC[C@@H](C)[C@H]1CC[C@H]2/C(=C/c3ccc(CO)c(CO)c3)CCC[C@]12C,63.2 µM
2,C[C@H](CC#CC(C)(C)O)[C@H]1CC[C@H]2/C(=C/c3ccc(CO)c(CO)c3)CCC[C@]12C,0.6 µM
3,CC(C)CCC[C@@H](C)[C@H]1CC[C@H]2/C(=C/c3cccc(CO)c3CO)CCC[C@]12C,32.4 µM
4,C[C@H](CC#CC(C)(C)O)[C@H]1CC[C@H]2/C(=C/c3cccc(CO)c3CO)CCC[C@]12C,> 100 µM

# Continued, values first:
row,IC50,Structure (SMILES)
1,5.4 µM,CC(C)CCC[C@@H](C)[C@H]1CC[C@H]2/C(=C/c3cccc(C(O)CCO)c3)CCC[C@]12C (some centres not stated)
2,1.4 µM,C[C@H](CCCC(C)(C)O)[C@H]1CC[C@H]2/C(=C/c3cccc(C(O)CCO)c3)CCC[C@]12C (some centres not stated)
3,7.8 µM,C[C@H](CC#CC(C)(C)O)[C@H]1CC[C@H]2/C(=C/c3cccc(C(O)CCO)c3)CCC[C@]12C (some centres not stated)
